{"source": "BindingDB's records for doi:10.1016/s0960-894x(00)00661-2", "about": "(Niddk, 2001)", "target": "T1, Corticotropin-releasing factor receptor 1 (Rattus norvegicus, UniProt P35353)", "T1 sequence (P35353 whole entry)": "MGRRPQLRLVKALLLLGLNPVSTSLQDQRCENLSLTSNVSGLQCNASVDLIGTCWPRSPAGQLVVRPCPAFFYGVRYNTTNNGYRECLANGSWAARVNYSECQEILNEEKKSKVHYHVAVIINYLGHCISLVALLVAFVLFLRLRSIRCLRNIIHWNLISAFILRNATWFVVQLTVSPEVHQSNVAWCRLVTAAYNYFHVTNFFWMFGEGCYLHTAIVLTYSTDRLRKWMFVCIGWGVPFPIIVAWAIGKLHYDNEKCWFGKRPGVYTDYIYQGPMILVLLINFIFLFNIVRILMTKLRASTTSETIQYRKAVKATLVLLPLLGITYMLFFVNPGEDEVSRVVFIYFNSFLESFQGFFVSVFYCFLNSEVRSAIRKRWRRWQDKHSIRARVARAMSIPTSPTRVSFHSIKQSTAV", "assay": "ChEBML_51283", "text": "Binding affinity towards Corticotropin releasing hormone receptor type 1 of rat cerebellum using [125I]Tyr-sauvagine as radioligand."}
{"smiles": "CCC[CH2][Sn]([CH2]CCC)([CH2]CCC)[c]1cc(Cl)c(Nc2nc(C)nc(N(CCC)CC3CC3)c2Cl)c(Cl)c1", "note": "[5-Chloro-N-cyclopropylmethyl-N'-(2,6-dichloro-4-tributylstannanyl-phenyl)-2-methyl-N-propyl-pyrimidine-4,6-diamine]", "values": [{"measurement": "Ki", "value": 3, "unit": "nM"}]}
